The record followed here is US10457654B2 (GENENTECH, INC., priority 2017, dated 2019).

Counter-ions that a name gives are not always drawn.

For test [1], the target named is T1, hNav1.7 (Homo sapiens (Human), UniProt Q15858). Put plainly: Tritiated compound binding to membranes from cells expressing hNav1.7 and the β1 subunit, competitive binding (LBA, Ex. 243A). The conditions noted are these: 100 pM [3H]compound, 18 h, room temperature; read-out: Nav1.7 LBA (Ex. 243A) IC50. The method, then:
Tritiated Compound Binding to Membranes Isolated from Cells that Heterologously Express hNav1.7 and the β1 Subunit
Preparation of membranes containing recombinantly expressed sodium channels: Frozen recombinant cell pellets were thawed on ice and diluted to 4 times the cell pellet weight with ice cold 50 mM Tris HCl, pH 7.4 buffer. The cell suspensions were homogenized on ice using a motorized glass dounce homogeniser. Homogenates were further diluted 8.4 times with ice cold 50 mM Tris HCl, pH 7.4 buffer and then centrifuged at 200×g at 4° C. for 15 min. The supernatants were collected and centrifuged at 10000×g at 4° C. for 50 min. […] The homogenized membranes were then processed through a syringe equipped with a 26 gauge needle. Protein concentrations were determined by Bradford Assay and the membranes were stored at −80° C.
Radioligand Binding Studies: Saturation experiments. A competitive NaV1.7 inhibitor having a methyl group was tritiated. Three tritiums were incorporated in place of methyl hydrogens to generate [^3H]compound. Binding of this radioligand was performed in 5 mL borosilicate glass test tubes at room temperature. […] Non-specific binding was determined in the presence of 1 μM unlabeled compound. After 18h, the reactants were filtered through GF/C glass fiber filters presoaked in 0.5% w/v polyethylene imine. […] [^3H]compound bound to filters was quantified by liquid scintillation counting.
Competitive binding experiments: Binding reactions were performed in 96-well polypropylene plates at room temperature for 18h. In 360 μL, membranes were incubated with 100 pM [^3H]compound and increasing concentrations of Test Compound. Non-specific binding was defined in the presence of 1 μM unlabeled compound. Reactions were transferred and filtered through 96-well glass fiber/C filter plates presoaked with 0.5% polyethylene imine. The filtered reactions were washed 5 times with 200 μL ice cold buffer containing 0.25% BSA. Bound radioactivity was determined by liquid scintillation counting.
Data Analysis: For saturation experiments, non-specific binding was subtracted from total binding to provide specific binding and these values were recalculated in terms of pmol ligand bound per mg protein. Saturation curves were constructed and dissociation constants were calculated using the single site ligand binding model: Beq=(Bmax*X)/(X+Kd), where Beq is the amount of ligand bound at equilibrium, Bmax is the maximum receptor density, Kd is the dissociation constant for the ligand, and X is the free ligand concentration. For competition studies percent inhibition was determined and IC50 values were calculated using a 4 parameter logistic model (% inhibition=(A+((B−A)/(1+((x/C)^D)))) using XLfit, where A and B are the maximal and minimum inhibition respectively, C is the IC50 concentration and D is the (Hill) slope.
Target sequence in this assay (Q15858 whole entry, looked up): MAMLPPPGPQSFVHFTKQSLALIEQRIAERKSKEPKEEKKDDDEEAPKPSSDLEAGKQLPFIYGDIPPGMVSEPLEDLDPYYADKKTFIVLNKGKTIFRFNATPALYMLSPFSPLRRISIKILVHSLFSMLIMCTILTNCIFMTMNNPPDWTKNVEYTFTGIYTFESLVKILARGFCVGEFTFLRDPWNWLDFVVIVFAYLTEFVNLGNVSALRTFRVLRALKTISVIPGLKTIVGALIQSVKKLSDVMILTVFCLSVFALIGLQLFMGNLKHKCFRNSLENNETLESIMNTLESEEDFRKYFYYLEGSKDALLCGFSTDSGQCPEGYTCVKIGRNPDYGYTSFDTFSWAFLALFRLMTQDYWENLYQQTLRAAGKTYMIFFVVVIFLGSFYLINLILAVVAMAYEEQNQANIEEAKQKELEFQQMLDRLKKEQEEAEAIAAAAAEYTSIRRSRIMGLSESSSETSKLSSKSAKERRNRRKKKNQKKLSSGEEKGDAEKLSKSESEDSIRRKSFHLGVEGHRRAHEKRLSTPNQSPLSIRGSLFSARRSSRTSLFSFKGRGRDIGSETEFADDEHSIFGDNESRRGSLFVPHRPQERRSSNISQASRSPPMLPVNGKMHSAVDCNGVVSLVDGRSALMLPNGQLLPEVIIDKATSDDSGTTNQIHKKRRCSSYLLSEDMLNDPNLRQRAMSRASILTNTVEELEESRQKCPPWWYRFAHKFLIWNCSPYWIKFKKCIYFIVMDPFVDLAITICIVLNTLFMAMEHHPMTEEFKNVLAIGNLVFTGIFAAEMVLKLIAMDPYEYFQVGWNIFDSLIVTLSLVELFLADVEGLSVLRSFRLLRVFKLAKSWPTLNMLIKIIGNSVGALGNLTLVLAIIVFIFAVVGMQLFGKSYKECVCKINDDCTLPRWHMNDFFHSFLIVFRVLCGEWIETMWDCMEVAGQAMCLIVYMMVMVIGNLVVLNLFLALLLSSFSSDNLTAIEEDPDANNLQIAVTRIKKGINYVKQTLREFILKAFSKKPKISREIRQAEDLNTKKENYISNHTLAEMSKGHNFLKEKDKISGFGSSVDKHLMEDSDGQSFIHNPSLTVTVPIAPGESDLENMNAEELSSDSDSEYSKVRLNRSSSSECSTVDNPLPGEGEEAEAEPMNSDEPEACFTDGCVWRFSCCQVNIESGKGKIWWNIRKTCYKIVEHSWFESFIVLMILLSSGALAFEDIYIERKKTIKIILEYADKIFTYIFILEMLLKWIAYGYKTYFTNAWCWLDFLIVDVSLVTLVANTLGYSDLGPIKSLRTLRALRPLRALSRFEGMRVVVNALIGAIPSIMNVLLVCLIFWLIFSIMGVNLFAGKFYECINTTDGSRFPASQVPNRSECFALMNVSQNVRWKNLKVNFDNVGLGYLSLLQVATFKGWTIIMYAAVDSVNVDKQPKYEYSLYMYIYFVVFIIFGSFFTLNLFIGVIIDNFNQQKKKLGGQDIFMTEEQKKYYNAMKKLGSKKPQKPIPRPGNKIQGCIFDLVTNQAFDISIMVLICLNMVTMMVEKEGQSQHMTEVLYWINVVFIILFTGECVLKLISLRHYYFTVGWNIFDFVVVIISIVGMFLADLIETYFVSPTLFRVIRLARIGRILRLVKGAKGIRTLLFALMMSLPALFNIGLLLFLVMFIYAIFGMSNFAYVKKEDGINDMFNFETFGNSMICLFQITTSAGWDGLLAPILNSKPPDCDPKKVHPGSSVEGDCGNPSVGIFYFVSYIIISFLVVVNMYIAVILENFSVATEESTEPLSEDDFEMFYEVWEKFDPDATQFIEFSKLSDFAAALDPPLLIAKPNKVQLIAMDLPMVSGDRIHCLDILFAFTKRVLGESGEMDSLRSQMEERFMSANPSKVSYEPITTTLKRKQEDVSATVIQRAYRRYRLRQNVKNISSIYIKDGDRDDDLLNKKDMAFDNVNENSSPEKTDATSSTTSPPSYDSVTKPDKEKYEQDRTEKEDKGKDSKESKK
Target sequence in this assay (Q07699 whole entry partner, looked up): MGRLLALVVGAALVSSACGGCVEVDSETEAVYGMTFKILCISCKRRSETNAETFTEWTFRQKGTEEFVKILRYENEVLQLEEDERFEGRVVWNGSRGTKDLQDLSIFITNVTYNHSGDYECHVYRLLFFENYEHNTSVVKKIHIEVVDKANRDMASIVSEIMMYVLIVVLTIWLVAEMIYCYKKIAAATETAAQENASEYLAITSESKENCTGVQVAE

Test [2] deals with T1, hNav1.7. In words: Tritiated compound binding to membranes from cells expressing hNav1.7 and the β1 subunit, modified protocol (LBA, Ex. 243B). To be noted: 300 pM [3H]compound, room temperature, read-out: Nav1.7 LBA (Ex. 243B) IC50.
Target sequence in this assay (Q15858 whole entry, looked up): as the sequence (Q15858 whole entry, looked up) above
Target sequence in this assay (Q07699 whole entry partner, looked up): as the sequence (Q07699 whole entry partner, looked up) above
Test [3] deals with T1, hNav1.7. In words: Patch voltage clamp electrophysiology assay (EP), Syncropatch 384PE, CHO cells expressing Nav1.7. The test is classed as cell-based. To be noted: holding potential -50 mV; […] compound incubation; read-out: EP_SP hNav1.7 (Ex. 243B) IC50. The method in brief: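 Automated whole-cell patch clamp on CHO cells stably expressing human Nav1.7, CsCl/EGTA internal and NMDG/80 mM Na+ external (pH 7.4). From −50 mV holding, −10 mV step, 20 ms recovery at −150 mV, then second −10 mV pulse where block is measured; inhibition after 7.5 min compound incubation.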
Target sequence in this assay (Q15858 other isoform, or with tags, fused parts or gaps): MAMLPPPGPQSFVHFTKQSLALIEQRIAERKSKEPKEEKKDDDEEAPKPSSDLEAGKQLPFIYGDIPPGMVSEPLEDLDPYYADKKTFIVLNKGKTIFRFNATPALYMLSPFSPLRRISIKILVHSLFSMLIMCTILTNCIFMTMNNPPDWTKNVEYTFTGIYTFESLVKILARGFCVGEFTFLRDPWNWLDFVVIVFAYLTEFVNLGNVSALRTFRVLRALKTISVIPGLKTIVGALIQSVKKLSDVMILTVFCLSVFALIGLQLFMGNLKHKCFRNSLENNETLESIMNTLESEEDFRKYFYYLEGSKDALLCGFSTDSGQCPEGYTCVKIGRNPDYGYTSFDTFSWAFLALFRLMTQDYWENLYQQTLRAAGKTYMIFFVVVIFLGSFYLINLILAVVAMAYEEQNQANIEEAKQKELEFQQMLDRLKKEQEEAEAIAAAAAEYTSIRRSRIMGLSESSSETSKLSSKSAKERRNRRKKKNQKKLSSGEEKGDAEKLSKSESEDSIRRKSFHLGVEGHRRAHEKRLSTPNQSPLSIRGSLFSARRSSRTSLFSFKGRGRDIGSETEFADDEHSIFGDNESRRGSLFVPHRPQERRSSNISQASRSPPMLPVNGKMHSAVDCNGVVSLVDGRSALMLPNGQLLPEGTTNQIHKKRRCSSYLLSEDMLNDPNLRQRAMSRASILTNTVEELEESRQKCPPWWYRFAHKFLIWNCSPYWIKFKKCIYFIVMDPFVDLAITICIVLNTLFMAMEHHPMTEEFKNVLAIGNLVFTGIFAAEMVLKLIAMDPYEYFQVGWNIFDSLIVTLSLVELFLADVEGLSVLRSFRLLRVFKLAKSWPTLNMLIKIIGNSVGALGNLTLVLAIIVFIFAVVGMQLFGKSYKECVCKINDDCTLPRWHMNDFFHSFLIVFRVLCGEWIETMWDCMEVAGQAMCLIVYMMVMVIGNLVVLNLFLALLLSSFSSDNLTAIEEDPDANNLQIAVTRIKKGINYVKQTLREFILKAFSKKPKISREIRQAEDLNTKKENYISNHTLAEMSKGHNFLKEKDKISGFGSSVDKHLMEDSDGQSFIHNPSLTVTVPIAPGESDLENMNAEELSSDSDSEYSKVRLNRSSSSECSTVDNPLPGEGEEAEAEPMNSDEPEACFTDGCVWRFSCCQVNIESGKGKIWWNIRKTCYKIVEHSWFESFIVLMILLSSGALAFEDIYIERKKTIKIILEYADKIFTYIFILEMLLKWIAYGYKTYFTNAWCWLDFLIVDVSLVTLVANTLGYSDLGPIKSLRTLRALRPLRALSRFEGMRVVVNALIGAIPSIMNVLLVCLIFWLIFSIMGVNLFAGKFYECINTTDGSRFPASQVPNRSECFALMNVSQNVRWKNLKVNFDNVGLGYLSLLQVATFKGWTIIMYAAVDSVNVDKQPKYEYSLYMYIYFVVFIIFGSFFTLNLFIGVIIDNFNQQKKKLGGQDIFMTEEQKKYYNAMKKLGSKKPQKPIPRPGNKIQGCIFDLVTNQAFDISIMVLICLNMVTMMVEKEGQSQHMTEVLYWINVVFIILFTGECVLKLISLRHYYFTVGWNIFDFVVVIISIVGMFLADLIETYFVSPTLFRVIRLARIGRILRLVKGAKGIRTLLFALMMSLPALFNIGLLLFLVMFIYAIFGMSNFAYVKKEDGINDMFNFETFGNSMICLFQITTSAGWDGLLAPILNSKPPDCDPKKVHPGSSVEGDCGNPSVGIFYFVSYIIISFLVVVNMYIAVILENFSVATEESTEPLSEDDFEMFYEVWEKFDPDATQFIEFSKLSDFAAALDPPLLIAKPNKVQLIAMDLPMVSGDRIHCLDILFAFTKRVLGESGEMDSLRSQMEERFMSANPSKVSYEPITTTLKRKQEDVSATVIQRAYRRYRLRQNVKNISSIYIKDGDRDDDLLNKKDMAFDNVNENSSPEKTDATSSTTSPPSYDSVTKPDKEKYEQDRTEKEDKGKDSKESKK

As to `O=S(=O)(Nc1nccs1)c1cc(Cl)c(N[C@H]2CCCC[C@@H]2N2CC[C@H](O)C2)cc1F` [Example 67, 5-chloro-2-fluoro-4-(((1S,2S)-2-((S)-3-hydroxypyrrolidin-1-yl)cyclohexyl)amino)-N-(thiazol-2-yl)benzenesulfonamide], the IC50 in test [1] is 0.0173 µM. With `CN(C)[C@@H]1CC[C@H](c2cccc(C(F)(F)F)c2)C[C@H]1Nc1cc(F)c(S(=O)(=O)Nc2nccs2)cc1Cl` [Example 103, 5-chloro-4-(((1R,2R,5S)-2-(dimethylamino)-5-(3-(trifluoromethyl)phenyl)cyclohexyl)amino)-2-fluoro-N-(thiazol-2-yl)benzenesulfonamide], in test [1], the IC50 was 0.0322 µM. As to `CN(C)[C@H]1CCCC[C@@H]1N1CCOc2cc(S(=O)(=O)Nc3nccs3)ccc21` [Example 54, 4-((1 S,2S)-2-(dimethylamino)cyclohexyl)-N-(thiazol-2-yl)-3,4-dihydro-2H-benzo[b][1,4]oxazine-7-sulfonamide], the IC50 in test [1] was 0.0979 µM.

For `O=S(=O)(Nc1nccs1)c1cc(Cl)c(N[C@H]2CCCC[C@@H]2N2CC(O)C2)cc1F` [Example 47, 5-chloro-2-fluoro-4-(((1 S,2S)-2-(3-hydroxyazetidin-1-yl)cyclohexyl)amino)-N-(thiazol-2-yl)benzenesulfonamide], the IC50 in test [1] amounted to 0.529 µM. On the same count and under the same terms, the same measure for `O=S(=O)(Nc1ccncn1)c1cc(Cl)c(N[C@H]2CCCC[C@@H]2N2CCC(O)C2)cc1F` (stereo partly drawn) [Example 61, 5-chloro-2-fluoro-4-(((1S,2S)-2-(3-hydroxypyrrolidin-1-yl)cyclohexyl)amino)-N-(pyrimidin-4-yl)benzenesulfonamide]: 0.558 µM. Regarding `CN(C)CC(=O)N(C)[C@H]1CCCC[C@@H]1Nc1cc(F)c(S(=O)(=O)Nc2nccs2)cc1Cl` [Example 167, N-((1S,2S)-2-((2-chloro-5-fluoro-4-(N-(thiazol-2-yl)sulfamoyl)phenyl)amino)cyclohexyl)-2-(dimethylamino)-N-methylacetamide], the IC50 in test [2] turned out to be 0.0917 µM; in test [3] it was 0.0187 µM. The like results for `N#C[C@H]1CCN([C@H]2CCCC[C@@H]2Nc2cc(F)c(S(=O)(=O)Nc3nccs3)cc2Cl)C1` [Example 162, 5-Chloro-4-(((1S,2S)-2-((S)-3-cyanopyrrolidin-1-yl)cyclohexyl)amino)-2-fluoro-N-(thiazol-2-yl)benzenesulfonamide formate] were, in that order, 0.248 µM and 0.00855 µM. The like results for `O=S(=O)(Nc1cccc(F)n1)c1cc(Cl)c(N[C@@H]2CCCC[C@H]2N2C[C@@H]3[C@@H](CO)[C@@H]3C2)cc1F` [Example 184] were, in that order, 2 µM and 4.96 µM. The like results for `CN(C)[C@H]1C[C@@H](c2ccc(C(F)(F)F)cc2)CC[C@@H]1Nc1cc(F)c(S(=O)(=O)Nc2ccncn2)cc1Cl` [Example 224, 5-Chloro-4-(((1S,2S,4S)-2-(dimethylamino)-4-(4-(trifluoromethyl)phenyl)cyclohexyl)amino)-2-fluoro-N-(pyrimidin-4-yl)benzenesulfonamide] were, in that order, 0.00833 µM and 0.00236 µM.

As for `CN(C)[C@H]1C[C@@H](c2cccc(C(F)(F)F)c2)CC[C@@H]1Nc1cc(F)c(S(=O)(=O)Nc2ccncn2)cc1Cl` [Example 181, 5-chloro-4-[[(1S,2S,4S)-2-(dimethylamino)-4-[3-(trifluoromethyl)phenyl]cyclohexyl]amino]-2-fluoro-N-pyrimidin-4-yl-benzenesulfonamide], the IC50 came out at 0.00131 µM in test [2] and 0.000783 µM in test [3]. The like results for `CN1CC(C(=O)N(C)[C@H]2CCCC[C@@H]2Nc2cc(F)c(S(=O)(=O)Nc3nccs3)cc2Cl)C1` [Example 179, N-((1S,2S)-2-((2-Chloro-5-fluoro-4-(N-(thiazol-2-yl)sulfamoyl)phenyl)amino)cyclohexyl)-N,1-dimethylazetidine-3-carboxamide] were, in that order, 0.27 µM and 0.00683 µM. With `O=S(=O)(Nc1cccc(F)n1)c1cc(Cl)c(N[C@@H]2CCCC[C@H]2N2CCCCC2)cc1F` [Example 117, 5-chloro-2-fluoro-N-(6-fluoropyridin-2-yl)-4-(((1R,2R)-2-(piperidin-1-yl)cyclohexyl)amino)benzenesulfonamide], the IC50 in test [2] was 2.22 µM; in test [3] it was 0.97 µM.

Consider `O=S(=O)(Nc1cccc(F)n1)c1cc(Cl)c(N[C@H]2CCCC[C@@H]2N2C[C@@H]3[C@@H](CO)[C@@H]3C2)cc1F` [Example 185], for which the IC50 in test [2] came out at 0.771 µM; in test [3], 0.0362 µM. For the molecule `CN(CC(O)CF)[C@H]1CCCC[C@@H]1Nc1cc(F)c(S(=O)(=O)Nc2nccs2)cc1Cl` (single isomer, unassigned) [Example 118], the IC50 in test [2] was determined as 0.242 µM; in test [3], 0.00851 µM.

As to `CN(C1CN(CC(F)(F)F)C1)[C@H]1CCCC[C@@H]1Nc1cc(F)c(S(=O)(=O)Nc2nccs2)cc1Cl` [Example 175, 5-Chloro-2-fluoro-4-(((1S,2S)-2-(methyl(1-(2,2,2-trifluoroethyl)azetidin-3-yl)amino)cyclohexyl)amino)-N-(thiazol-2-yl)benzenesulfonamide], the IC50 amounted to 0.316 µM in test [2] and 0.0217 µM in test [3]. On the same counts, the results for `CN(CCO)[C@H]1C[C@@H](C(F)(F)F)CC[C@@H]1Nc1cc(F)c(S(=O)(=O)Nc2cccc(F)n2)cc1Cl` [Example 158, 5-chloro-2-fluoro-N-(6-fluoropyridin-2-yl)-4-(((1S,2S,4S)-2-((2-hydroxyethyl)(methyl)amino)-4-(trifluoromethyl)cyclohexyl)amino)benzenesulfonamide formate] are 0.00596 µM and 0.00271 µM. On the same counts, the results for `Cc1csc(NS(=O)(=O)c2cc(Cl)c(N[C@H]3CC[C@H](C(F)(F)F)C[C@@H]3N(C)C)cc2F)n1` [Example 171, 5-chloro-4-(((1S,2S,4S)-2-(dimethylamino)-4-(trifluoromethyl)cyclohexyl)amino)-2-fluoro-N-(4-methylthiazol-2-yl)benzenesulfonamide formate] are 0.255 µM and 0.0122 µM. On the same counts, the results for `CN(C)[C@H]1C[C@H](c2cccc(C(F)(F)F)c2)CC[C@@H]1Nc1cc(F)c(S(=O)(=O)Nc2nccs2)cc1Cl` [Example 137, 5-chloro-4-(((1S,2S,4R)-2-(dimethylamino)-4-(3-(trifluoromethyl)phenyl)cyclohexyl)amino)-2-fluoro-N-(thiazol-2-yl)benzenesulfonamide] are 0.00357 µM and 0.00124 µM.

As for `CN1CCN([C@H]2CCCC[C@@H]2Nc2cc(F)c(S(=O)(=O)Nc3nccs3)cc2Cl)CC1` [Example 163, 5-Chloro-2-fluoro-4-(((1S,2S)-2-(4-methylpiperazin-1-yl)cyclohexyl)amino)-N-(thiazol-2-yl)benzenesulfonamide], the IC50 in test [2] turned out to be 0.201 µM; in test [3] it was 0.0181 µM. With `CN(c1cnn(C)c1)[C@H]1CCCC[C@@H]1Nc1cc(F)c(S(=O)(=O)Nc2nccs2)cc1Cl` [Example 140, 5-chloro-2-fluoro-4-(((1S,2S)-2-(methyl(1-methyl-1H-pyrazol-4-yl)amino)cyclohexyl)amino)-N-(thiazol-2-yl)benzenesulfonamide], the IC50 worked out at 0.17 µM in test [2] and 0.0132 µM in test [3]. Consider `CN(CC(O)CF)[C@H]1CCCC[C@@H]1Nc1cc(F)c(S(=O)(=O)Nc2nccs2)cc1Cl` (single isomer, unassigned) [Example 119], for which the results for the IC50 in test [2] and in test [3] were 0.184 µM and 0.0107 µM, respectively. The like results for `CN(C)[C@H]1CN(c2cccc(C(F)(F)F)c2)CC[C@@H]1Nc1cc(F)c(S(=O)(=O)Nc2ccncn2)cc1Cl` [Example 233, 5-Chloro-4-(((3S,4S)-3-(dimethylamino)-1-(3-(trifluoromethyl)phenyl)piperidin-4-yl)amino)-2-fluoro-N-(pyrimidin-4-yl)benzenesulfonamide] were, in that order, 0.00982 µM and 0.00171 µM.
